Results taken from patent US20240092784A1, “CONDENSED HETEROCYCLIC COMPOUND” (NISSAN CHEMICAL CORPORATION, priority 2020, published 2024).

What follows are compounds tested against human SPR (Homo sapiens (Human), UniProt P35270) (assay: Evaluation Example 2: Measurement of human SPR inhibitory activity (seven concentrations, sepiapterin absorbance at 420 nm)). Settings: Evaluation Example 2, seven concentrations 0.14 nM to 100 nM, 240 minutes at room temperature, read-out: IC50.
Assay type: biochemical
In short: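 His-tagged full-length human SPR (1-261) was expressed in E. coli and the tag removed. Enzyme at 150 ng/mL in 100 mM Tris-HCl pH 7.5/0.01% BSA was mixed with compound (0.14–100 nM, seven points), 120 μM sepiapterin and 160 μM NADPH, both as added-solution concentrations. After 240 min at room temperature, remaining sepiapterin was read at 420 nm to give percent inhibition.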

Sequence of human SPR (P35270 whole entry): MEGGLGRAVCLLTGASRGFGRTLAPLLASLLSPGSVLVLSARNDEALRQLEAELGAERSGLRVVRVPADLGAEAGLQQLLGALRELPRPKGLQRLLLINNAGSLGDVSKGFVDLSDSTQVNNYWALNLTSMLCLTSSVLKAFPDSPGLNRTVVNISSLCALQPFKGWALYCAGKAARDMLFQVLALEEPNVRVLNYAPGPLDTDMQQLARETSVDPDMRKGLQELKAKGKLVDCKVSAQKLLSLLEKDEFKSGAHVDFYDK

| Compound | IC50 |
| --- | --- |
| C[C@@H](Nc1cc2n(CC(C)(C)C)c(=O)c(C(=O)NC3CC3)c(O)n2n1)c1ccccn1 [Synthesis Example 327, (R)-N-Cyclopropyl-7-hydroxy-4-neopentyl-5-oxo-2-((1-(pyridin-2-yl)ethyl)amino)-4,5-dihydropyrazolo[1,5-a]pyrimidine-6-carboxamide] | 2.39 nM |
| Cc1nccnc1Nc1cc2n(CC(C)(C)C)c(=O)c(C(=O)NC3CC3)c(O)n2n1 [Synthesis Example 328, N-Cyclopropyl-7-hydroxy-2-((3-methylpyrazin-2-yl)amino)-4-neopentyl-5-oxo-4,5-dihydropyrazolo[1,5-a]pyrimidine-6-carboxamide] | 1.56 nM |
| CC(C)(C)Cn1c(=O)c(C(=O)NC2CC2)c(O)n2nc(Nc3cc(C#N)ncn3)cc12 [Synthesis Example 329, 2-((6-Cyanopyrimidin-4-yl)amino)-N-cyclopropyl-7-hydroxy-4-neopentyl-5-oxo-4,5-dihydropyrazolo[1,5-a]pyrimidine-6-carboxamide] | 1.69 nM |
| Cc1cncc(Nc2cc3n(CC(C)(C)C)c(=O)c(C(=O)NC4CC4)c(O)n3n2)n1 [Synthesis Example 330, N-Cyclopropyl-7-hydroxy-2-((6-methylpyrazin-2-yl)amino)-4-neopentyl-5-oxo-4,5-dihydropyrazolo[1,5-a]pyrimidine-6-carboxamide] | 1.83 nM |
| CC(C)(C)Cn1c(=O)c(C(=O)NC2CC2)c(O)n2nc(Nc3cncc(C(F)(F)F)n3)cc12 [Synthesis Example 331, N-Cyclopropyl-7-hydroxy-4-neopentyl-5-oxo-2-((6-(trifluoromethyl)pyrazin-2-yl)amino)-4,5-dihydropyrazolo[1,5-a]pyrimidine-6-carboxamide] | 1.71 nM |
| COc1nccc(Nc2cc3n(CC(C)(C)C)c(=O)c(C(=O)NC4CC4)c(O)n3n2)n1 [Synthesis Example 332, N-Cyclopropyl-7-hydroxy-2-((2-methoxypyrimidin-4-yl)amino)-4-neopentyl-5-oxo-4,5-dihydropyrazolo[1,5-a]pyrimidine-6-carboxamide] | 2.06 nM |
| Cc1cnc(Nc2cc3n(CC(C)(C)C)c(=O)c(C(=O)NC4CC4)c(O)n3n2)cn1 [Synthesis Example 333, N-Cyclopropyl-7-hydroxy-2-((5-methylpyrazin-2-yl)amino)-4-neopentyl-5-oxo-4,5-dihydropyrazolo[1,5-a]pyrimidine-6-carboxamide] | 1.86 nM |
| Cc1nccc(Nc2cc3n(CC(C)(C)C)c(=O)c(C(=O)NC4CC4)c(O)n3n2)n1 [Synthesis Example 334, N-Cyclopropyl-7-hydroxy-2-((2-methylpyrimidin-4-yl)amino)-4-neopentyl-5-oxo-4,5-dihydropyrazolo[1,5-a]pyrimidine-6-carboxamide] | 1 nM |
| CC(C)(C)Cn1c(=O)c(C(=O)NC2CC2)c(O)n2nc(Nc3cnc(C(=O)N4CCOCC4)cn3)cc12 [Synthesis Example 335, N-Cyclopropyl-7-hydroxy-2-((5-(morpholine-4-carbonyl)pyrazin-2-yl)amino)-4-neopentyl-5-oxo-4,5-dihydropyrazolo[1,5-a]pyrimidine-6-carboxamide] | 0.73 nM |
| CCCc1cnc(Nc2cc3n(CC(C)(C)C)c(=O)c(C(=O)NC4CC4)c(O)n3n2)cn1 [Synthesis Example 336, N-Cyclopropyl-7-hydroxy-4-neopentyl-5-oxo-2-((5-propylpyrazin-2-yl)amino)-4,5-dihydropyrazolo[1,5-a]pyrimidine-6-carboxamide] | 7.13 nM |
| CC(C)(C)Cn1c(=O)c(C(=O)NC2CC2)c(O)n2nc(Nc3cnc(C(F)F)cn3)cc12 [Synthesis Example 337, N-Cyclopropyl-2-((5-(difluoromethyl)pyrazin-2-yl)amino)-7-hydroxy-4-neopentyl-5-oxo-4,5-dihydropyrazolo[1,5-a]pyrimidine-6-carboxamide] | 1.48 nM |
| CCOc1cnc(Nc2cc3n(CC(C)(C)C)c(=O)c(C(=O)NC4CC4)c(O)n3n2)cn1 [Synthesis Example 338, N-Cyclopropyl-2-((5-ethoxypyrazin-2-yl)amino)-7-hydroxy-4-neopentyl-5-oxo-4,5-dihydropyrazolo[1,5-a]pyrimidine-6-carboxamide] | 2.73 nM |
| Cc1cc(Nc2cc3n(CC(C)(C)C)c(=O)c(C(=O)NC4CC4)c(O)n3n2)ncn1 [Synthesis Example 339, N-Cyclopropyl-7-hydroxy-2-((6-methylpyrimidin-4-yl)amino)-4-neopentyl-5-oxo-4,5-dihydropyrazolo[1,5-a]pyrimidine-6-carboxamide] | 4.57 nM |
| Cc1cncnc1Nc1cc2n(CC(C)(C)C)c(=O)c(C(=O)NC3CC3)c(O)n2n1 [Synthesis Example 340, N-Cyclopropyl-7-hydroxy-2-((5-methylpyrimidin-4-yl)amino)-4-neopentyl-5-oxo-4,5-dihydropyrazolo[1,5-a]pyrimidine-6-carboxamide] | 1.92 nM |
| CC(C)(C)Cn1c(=O)c(C(=O)NC2CC2)c(O)n2nc(N3CC[C@@H](N)C3)cc12 [Synthesis Example 341, (R)-2-(3-Aminopyrrolidin-1-yl)-N-cyclopropyl-7-hydroxy-4-neopentyl-5-oxo-4,5-dihydropyrazolo[1,5-a]pyrimidine-6-carboxamide] | 2.6 nM |
| CC(C)(C)Cn1c(=O)c(C(=O)NC2CC2)c(O)n2nc(N3CC[C@H](N)C3)cc12 [Synthesis Example 342, (S)-2-(3-Aminopyrrolidin-1-yl)-N-cyclopropyl-7-hydroxy-4-neopentyl-5-oxo-4,5-dihydropyrazolo[1,5-a]pyrimidine-6-carboxamide] | 2.31 nM |
| CC(C)(C)Cn1c(=O)c(C(=O)NC2CC2)c(O)n2nc(NC3CCCCC3)cc12 [Synthesis Example 343, 2-(Cyclohexylamino)-N-cyclopropyl-7-hydroxy-4-neopentyl-5-oxo-4,5-dihydropyrazolo[1,5-a]pyrimidine-6-carboxamide] | 4.71 nM |
| CC(C)(C)Cn1c(=O)c(C(=O)NC2CC2)c(O)n2nc(Nc3cnc(C(C)(F)F)cn3)cc12 [Synthesis Example 344, N-Cyclopropyl-2-((5-(1,1-difluoroethyl)pyrazin-2-yl)amino)-7-hydroxy-4-neopentyl-5-oxo-4,5-dihydropyrazolo[1,5-a]pyrimidine-6-carboxamide] | 1.69 nM |
| CC(C)(C)Cn1c(=O)c(C(=O)NC2CC2)c(O)n2nc(Nc3cncc(C(N)=O)n3)cc12 [Synthesis Example 345, 2-((6-Carbamoylpyrazin-2-yl)amino)-N-cyclopropyl-7-hydroxy-4-neopentyl-5-oxo-4,5-dihydropyrazolo[1,5-a]pyrimidine-6-carboxamide] | 0.92 nM |
| Cn1ccc(Nc2cc3n(CC(C)(C)C)c(=O)c(C(=O)NC4CC4)c(O)n3n2)n1 [Synthesis Example 346, N-Cyclopropyl-7-hydroxy-2-((1-methyl-1H-pyrazol-3-yl)amino)-4-neopentyl-5-oxo-4,5-dihydropyrazolo[1,5-a]pyrimidine-6-carboxamide] | 1.77 nM |
| CC(C)(C)Cn1c(=O)c(C(=O)NCC(F)(F)F)c(O)n2nc(Nc3cnccn3)cc12 [Synthesis Example 347, 7-Hydroxy-4-neopentyl-5-oxo-2-(pyrazin-2-ylamino)-N-(2,2,2-trifluoroethyl)-4,5-dihydropyrazolo[1,5-a]pyrimidine-6-carboxamide] | 1.87 nM |
| CC(C)Cn1c(=O)c(C(=O)NCC(F)(F)F)c(O)n2nc(Nc3cnccn3)cc12 [Synthesis Example 348, 7-Hydroxy-4-isobutyl-5-oxo-2-(pyrazin-2-ylamino)-N-(2,2,2-trifluoroethyl)-4,5-dihydropyrazolo[1,5-a]pyrimidine-6-carboxamide] | 2.84 nM |
| CC(C)(C)Cn1c(=O)c(C(=O)NC2CC2)c(O)n2nc(Nc3cnc(C(C)(C)O)cn3)cc12 [Synthesis Example 349, N-Cyclopropyl-7-hydroxy-2-((5-(2-hydroxypropan-2-yl)pyrazin-2-yl)amino)-4-neopentyl-5-oxo-4,5-dihydropyrazolo[1,5-a]pyrimidine-6-carboxamide] | 1.36 nM |
| O=C(NC1CC1)c1c(O)n2nc(Nc3cnccn3)cc2n(CC2CCOCC2)c1=O [Synthesis Example 350, N-Cyclopropyl-7-hydroxy-5-oxo-2-(pyrazin-2-ylamino)-4-((tetrahydro-2H-pyran-4-yl)methyl)-4,5-dihydropyrazolo[1,5-a]pyrimidine-6-carboxamide] | 0.75 nM |
| CC(C)(C)Cn1c(=O)c(C(=O)NC2CC2)c(O)n2nc(Nc3ccnc(C(N)=O)n3)cc12 [Synthesis Example 351, 2-((2-Carbamoylpyrimidin-4-yl)amino)-N-cyclopropyl-7-hydroxy-4-neopentyl-5-oxo-4,5-dihydropyrazolo[1,5-a]pyrimidine-6-carboxamide] | 0.9 nM |
| CC(C)(C)Cn1c(=O)c(C(=O)NC2CC2)c(O)n2nc(Nc3cnc(C(=O)NCC(F)(F)F)cn3)cc12 [Synthesis Example 352, N-Cyclopropyl-7-hydroxy-4-neopentyl-5-oxo-2-((5-((2,2,2-trifluoroethyl)carbamoyl)pyrazin-2-yl)amino)-4,5-dihydropyrazolo[1,5-a]pyrimidine-6-carboxamide] | 1.04 nM |
| CC(C)(C)Cn1c(=O)c(C(=O)NC2CC2)c(O)n2nc(Nc3cnc(C(=O)NCC(F)F)cn3)cc12 [Synthesis Example 353, N-Cyclopropyl-2-((5-((2,2-difluoroethyl)carbamoyl)pyrazin-2-yl)amino)-7-hydroxy-4-neopentyl-5-oxo-4,5-dihydropyrazolo[1,5-a]pyrimidine-6-carboxamide] | 0.82 nM |
| CC(C)(C)Cn1c(=O)c(C(=O)NC2CC2)c(O)n2nc(Nc3cnc(C(=O)NCC(C)(C)O)cn3)cc12 [Synthesis Example 354, N-Cyclopropyl-7-hydroxy-2-((5-((2-hydroxy-2-methylpropyl)carbamoyl)pyrazin 2-yl)amino)-4-neopentyl-5-oxo-4,5-dihydropyrazolo[1,5-a]pyrimidine-6-carboxamide] | 0.86 nM |
